# Results published in US20090131494A1, “Non-Nucleoside Reverse Transcriptase Inhibitors” (priority 2005, published 2009).
# System: acute HIV infection of T-lymphoid cells
# Test: Assay for inhibition of HIV replication (spread assay)
# Format: cell-based
# Settings: Human immunodeficiency virus 1, T-lymphoid, read-out: IC95, inhibition of HIV replication in spread assay
# Protocol: An assay for the inhibition of acute HIV infection of T-lymphoid cells (alternatively referred to herein as the “spread assay”) was conducted in accordance with Vacca, J. P. et al., Proc. Natl. Acad. Sci. USA 1994, 91: 4096.
row,SMILES,IC95
1,"CCOC(=O)c1[nH]c2ccc(Cl)cc2c1SCC1CCCCC1 [Example 11, ethyl 5-chloro-3-[(cyclohexylmethyl)thio]-1H-indole-2-carboxylate]",≤ 10 µM
2,"NC(=O)c1[nH]c2ccc(Cl)cc2c1S(=O)(=O)CC1CCCCC1 [Example 33, 5-chloro-3-[(cyclohexylmethyl)sulfonyl]-1H-indole-2-carboxamide]",≤ 10 µM
3,"CCOC(=O)c1[nH]c2ccc(Cl)cc2c1S(=O)(=O)CC1CCCCC1 [Example 22, ethyl 5-chloro-3-[(cyclohexylmethyl)sulfonyl]-1H-indole-2-carboxylate]",≤ 10 µM

# Same assay, conditions: Human immunodeficiency virus 1; T-lymphoid cells; tested up to 10 micromolar; read-out: IC95, inhibition of HIV replication in spread assay
row,SMILES,IC95
1,"CCOC(=O)c1[nH]c2ccc(Cl)cc2c1SC1CCC1 [Example 9, ethyl 5-chloro-3-(cyclobutylthio)-1H-indole-2-carboxylate]",≤ 10 µM
2,"NC(=O)c1[nH]c2ccc(Cl)cc2c1S(=O)(=O)C1C=CCCC1 (stereo not drawn) [Example 32, 5-chloro-3-(cyclohex-2-en-1-ylsulfonyl)-1H-indole-2-carboxamide]",≤ 10 µM
3,"CC(C)CCS(=O)(=O)c1c(C(=O)NCc2nccn2C)[nH]c2ccc(Cl)cc12 [Example 39, 5-Chloro-3-[(3-methylbutyl)sulfonyl]-N-[(1-methyl-1H-imidazol-2-yl)methyl]-1-indole-2-carboxamid-indole-2-carboxamide]",≤ 10 µM
4,"NC(=O)c1[nH]c2ccc(Cl)cc2c1S(=O)(=O)CCCC(F)(F)F [Example 25, 5-chloro-3-[(4,4,4-trifluorobutyl)sulfonyl]-1H-indole-2-carboxamide]",≤ 10 µM
5,"NC(=O)c1[nH]c2ccc(Cl)cc2c1S(=O)(=O)C1CCC1 [Example 29, 5-chloro-3-(cyclobutylsulfonyl)-1H-indole-2-carboxamide]",≤ 10 µM
6,"CCOC(=O)c1[nH]c2ccc(Cl)cc2c1S(=O)(=O)CCCC(F)(F)F [Example 15, ethyl 5-chloro-3-[(4,4,4,-trifluorobutyl)sulfonyl]-1H-indole-2-carboxylate]",> 10 µM
7,"CC(C)CCS(=O)(=O)c1c(C(=O)NCc2n[nH]c3ccccc23)[nH]c2ccc(Cl)cc12 [Example 40, 5-Chloro-N-(1H-indazol-3-ylmethyl)-3-[(3-methylbutyl)sulfonyl]-1H-indole-2-carboxamide]",≤ 10 µM
8,"CCOC(=O)c1[nH]c2ccc(Cl)cc2c1SCC1CCC1 [Example 1, Ethyl 5-chloro-3-(cyclobutylmethylthio)-1H-indole-2-carboxylate]",≤ 10 µM
9,"CCOC(=O)c1[nH]c2ccc(Cl)cc2c1S(=O)(=O)C1CCCCC1 [Example 21, ethyl 5-chloro-3-(cyclohexylsulfonyl)-1H-indole-2-carboxylate]",> 10 µM
10,"NC(=O)c1[nH]c2ccc(Cl)cc2c1S(=O)(=O)C1CCCC1 [Example 30, 5-chloro-3-(cyclopentylsulfonyl)-1H-indole-2-carboxamide]",≤ 10 µM
11,"CCOC(=O)c1[nH]c2ccc(Cl)cc2c1S(=O)(=O)CCC1CC1 [Example 18, ethyl 5-chloro-3-[(2-cyclopropylethyl)sulfonyl]-1H-indole-2-carboxylate]",≤ 10 µM
12,"CCOC(=O)c1[nH]c2ccc(Cl)cc2c1SCCC(F)(F)F [Example 3, ethyl 5-chloro-3-[(3,3,3-trifluoropropyl)thio]-1H-indole-2-carboxylate]",≤ 10 µM
13,"CCOC(=O)c1[nH]c2ccc(Cl)cc2c1SCCCC(F)(F)F [Example 4, ethyl 5-chloro-3-[(4,4,4-trifluorobutyl)thio]-1H-indole-2-carboxylate]",> 10 µM
14,"CCOC(=O)c1[nH]c2ccc(Cl)cc2c1SC1CCCCC1 [Example 12, Ethyl 5-chloro-3-(cyclohexylthio)-1H-indole-2-carboxylate]",≤ 10 µM
15,NC(=O)c1[nH]c2ccc(Cl)cc2c1S(=O)(=O)CC1CC(F)(F)C1(F)F (stereo not drawn) [Example 37],≤ 10 µM
16,"CCOC(=O)c1[nH]c2ccc(Cl)cc2c1S(=O)(=O)CC1CC1 [Example 17, ethyl 5-chloro-3-[(cyclopropylmethyl)sulfonyl]-1H-indole-2-carboxylate]",≤ 10 µM
17,"CCOC(=O)c1[nH]c2ccc(Cl)cc2c1S(=O)(=O)C1CCC1 [Example 19, ethyl 5-chloro-3-(cyclobutylsulfonyl)-1H-indole-2-carboxylate]",> 10 µM

row,SMILES,IC95
1,"NC(=O)c1[nH]c2ccc(Cl)cc2c1S(=O)(=O)C1CCCCC1 [Example 31, 5-chloro-3-(cyclohexylsulfonyl)-1H-indole-2-carboxamide]",≤ 10 µM
2,"CCOC(=O)c1[nH]c2ccc(Cl)cc2c1SCC(F)(F)F [Example 2, ethyl 5-chloro-3-[(2,2,2-trifluoroethyl)thio]-1H-indole-2-carboxylate]",> 10 µM
3,"CCOC(=O)c1[nH]c2ccc(Cl)cc2c1S(=O)(=O)C1CC1 [Example 16, ethyl 5-chloro-3-(cyclopropylsulfonyl)-1H-indole-2-carboxylate]",> 10 µM
4,"NC(=O)c1[nH]c2ccc(Cl)cc2c1S(=O)(=O)CC1CC1 [Example 27, 5-chloro-3-[(cyclopropylmethyl)sulfonyl]-1H-indole-2-carboxamide]",≤ 10 µM
5,"CCOC(=O)c1[nH]c2ccc(Cl)cc2c1SC1CC1 [Example 6, ethyl 5-chloro-3-(cyclopropylthio)-1H-indole-2-carboxylate]",> 10 µM
6,"NC(=O)c1[nH]c2ccc(Cl)cc2c1S(=O)(=O)CCC1CC1 [Example 28, 5-chloro-3-[(2-cyclopropylethyl)sulfonyl]-1H-indole-2-carboxamide]",≤ 10 µM
7,"CCOC(=O)c1[nH]c2ccc(Cl)cc2c1SC1CCCC1 [Example 10, ethyl 5-chloro-3-(cyclopentylthio)-1H-indole-2-carboxylate]",≤ 10 µM
8,"CCOC(=O)c1[nH]c2ccc(Cl)cc2c1SCC(F)(F)C(F)(F)F [Example 5, ethyl 5-chloro-3-[(2,2,3,3,3-pentafluoropropyl)thio]-1H-indole-2-carboxylate]",≤ 10 µM
9,"NC(=O)c1[nH]c2ccc(Cl)cc2c1S(=O)(=O)C1CC1 [Example 26, 5-chloro-3-(cyclopropylsulfonyl)-1H-indole-2-carboxamide]",≤ 10 µM
10,"CCOC(=O)c1[nH]c2ccc(Cl)cc2c1S(=O)(=O)CC1CCC1 [Example 13, Ethyl 5-chloro-3-(cyclobutylmethylsulfonyl)-1H-indole-2-carboxylate]",≤ 10 µM
11,"CCOC(=O)c1[nH]c2ccc(Cl)cc2c1SCCC1CC1 [Example 8, ethyl 5-chloro-3-[(2-cyclopropylethyl)thio]-1H-indole-2-carboxylate]",≤ 10 µM
12,"CC(CC(F)(F)F)S(=O)(=O)c1c(C(N)=O)[nH]c2ccc(Cl)cc12 (stereo not drawn) [Example 34, 5-chloro-3-[(3,3,3-trifluoro-1-methylpropyl)sulfonyl]-1H-indole-2-carboxamide]",≤ 10 µM
13,"CCOC(=O)c1[nH]c2ccc(Cl)cc2c1S(=O)(=O)CCC(F)(F)F [Example 14, ethyl 5-chloro-3-[(3,3,3-trifluoropropyl)sulfonyl]-1H-indole-2-carboxylate]",> 10 µM
14,"NC(=O)c1[nH]c2ccc(Cl)cc2c1S(=O)(=O)CC(F)(F)C(F)F [Example 38, 5-chloro-3-[(2,2,3,3-tetrafluoropropyl)sulfonyl]-1H-indole-2-carboxamide]",> 10 µM
15,"CCOC(=O)c1[nH]c2ccc(Cl)cc2c1S(=O)(=O)C1CCCC1 [Example 20, ethyl 5-chloro-3-(cyclopentylsulfonyl)-1H-indole-2-carboxylate]",> 10 µM
16,"NC(=O)c1[nH]c2ccc(Cl)cc2c1S(=O)(=O)CC1CCC1 [Example 23, 5-Chloro-3-(cyclobutylmethylsulfonyl)-1H-indole-2-carboxamide]",≤ 10 µM
17,"NC(=O)c1[nH]c2ccc(Cl)cc2c1S(=O)(=O)CCC(F)(F)F [Example 24, 5-chloro-3-[(3,3,3-trifluoropropyl)sulfonyl]-1H-indole-2-carboxamide]",≤ 10 µM

# Biological target: T1, mutant HIV reverse transcriptase, K103N mutation (Human immunodeficiency virus type 1 group M subtype B, UniProt P04585, K690N)
# T1 construct: made in house
# Test: Analogous RT inhibition assay, K103N mutant
# Format: biochemical
# Settings: RT with K103N mutation
# Protocol: Analogous assays were conducted substituting mutant HIV strains to determine the […] inhibition of compounds of the present invention against mutant HIV reverse transcriptase. In one strain the reverse transcriptase has the Y181C mutation and in the other strain the reverse transcriptase has the K103N mutation. The mutations were generated with the […] site-directed mutagenesis kit (Stratagene).
row,SMILES,IC50
1,"CC(C)CCS(=O)(=O)c1c(C(=O)NCc2nccn2C)[nH]c2ccc(Cl)cc12 [Example 39, 5-Chloro-3-[(3-methylbutyl)sulfonyl]-N-[(1-methyl-1H-imidazol-2-yl)methyl]-1-indole-2-carboxamid-indole-2-carboxamide]",< 2 µM
2,"CC(C)CCS(=O)(=O)c1c(C(=O)NCc2n[nH]c3ccccc23)[nH]c2ccc(Cl)cc12 [Example 40, 5-Chloro-N-(1H-indazol-3-ylmethyl)-3-[(3-methylbutyl)sulfonyl]-1H-indole-2-carboxamide]",< 2 µM
